# “And” between values parts separate entries of the source, which are not always exact repeats. Equal entries are not always repeated.
# What was measured:
# [1] = system: patients with essential tremor; assay: T-CALM: TETRAS performance subscale (TETRAS-PS); details: for >5 to 10 point worsening / >10 point worsening: TETRAS-PS
# [2] = Exploratory embryofetal development study in rats
# [3] = 4-week oral toxicology in rats (with FOB); details: for NOAEL at 4 weeks / AUC / Cmax: rat; for NOAEL at 4 weeks: in vivo; for AUC / Cmax: plasma, Day 28, mean (SD)
# Cav3.3 = target: T1, Cav3.3 (Homo sapiens, UniProt Q9P0X4); assay: Cav3.3 whole-cell voltage-clamp; assay type: cell-based
# T1 construct: expressed in transfected cells; host or cells: HEK 293
# Cav3.2 = target: T2, Cav3.2 (Homo sapiens, UniProt O95180); assay: Cav3.2 electrophysiology; assay type: cell-based; details: Vh=−80 mV
# T2 construct: expressed in transfected cells
# cardiovascular function = assay: Cardiovascular telemetry in conscious dogs, oral
# [4] = Cardiovascular telemetry in conscious dogs, oral; details: dog
# [5] = system: patients with essential tremor; assay: T-CALM: TETRAS total score; assay type: in vivo, human
# Experimental: The Total TETRAS score was defined as the sum of the TETRAS performance subscale total score and the TETRAS ADL subscale score. TETRAS TOTAL score combines both patient reported outcome and objective measurement of tremor amplitude in a single score. Analyses of the TETRAS-ADL was conducted using the same type of ANCOVA model as described for the TETRAS-PS, using two-sided tests at the alpha=0.05 level of significance (FIG. 3 and Table 3).
# [6] = in vivo
# CYP3A4 and CYP2C9 = assay: In vitro metabolism (liver microsomes, hepatocytes, recombinant CYPs, anti-CYP antibodies); assay type: in vitro ADME, human; details: 10 μM CX-8998
# Source text: Glucuronide conjugates of the oxygenated metabolites are detected in human, monkey, and dog hepatocyte preparations. […] However, the abundance of CYP3A5, CYP2C19, and CYP2D6 in human liver microsomes is low (2%-5%) relative to the primary contributors, CYP3A4 (˜30%) and CYP2C9 (˜20%). […] Information on reproductive and developmental toxicology was obtained in a 28-day pivotal female fertility study in rats and in preliminary embryo-fetal development studies in rats and rabbits.
# [7] = Investigator Rated, subgroup Using Concurrent Tremor Medication at Day 1, N=23
# [8] = Sprague-Dawley rat, oral gavage GD 6 through GD 20
# [9] = Sprague-Dawley rat, 30, 300, or 2000 mg/kg/day oral gavage for 4 weeks
# T1 sequence (Q9P0X4 whole entry, species assumed): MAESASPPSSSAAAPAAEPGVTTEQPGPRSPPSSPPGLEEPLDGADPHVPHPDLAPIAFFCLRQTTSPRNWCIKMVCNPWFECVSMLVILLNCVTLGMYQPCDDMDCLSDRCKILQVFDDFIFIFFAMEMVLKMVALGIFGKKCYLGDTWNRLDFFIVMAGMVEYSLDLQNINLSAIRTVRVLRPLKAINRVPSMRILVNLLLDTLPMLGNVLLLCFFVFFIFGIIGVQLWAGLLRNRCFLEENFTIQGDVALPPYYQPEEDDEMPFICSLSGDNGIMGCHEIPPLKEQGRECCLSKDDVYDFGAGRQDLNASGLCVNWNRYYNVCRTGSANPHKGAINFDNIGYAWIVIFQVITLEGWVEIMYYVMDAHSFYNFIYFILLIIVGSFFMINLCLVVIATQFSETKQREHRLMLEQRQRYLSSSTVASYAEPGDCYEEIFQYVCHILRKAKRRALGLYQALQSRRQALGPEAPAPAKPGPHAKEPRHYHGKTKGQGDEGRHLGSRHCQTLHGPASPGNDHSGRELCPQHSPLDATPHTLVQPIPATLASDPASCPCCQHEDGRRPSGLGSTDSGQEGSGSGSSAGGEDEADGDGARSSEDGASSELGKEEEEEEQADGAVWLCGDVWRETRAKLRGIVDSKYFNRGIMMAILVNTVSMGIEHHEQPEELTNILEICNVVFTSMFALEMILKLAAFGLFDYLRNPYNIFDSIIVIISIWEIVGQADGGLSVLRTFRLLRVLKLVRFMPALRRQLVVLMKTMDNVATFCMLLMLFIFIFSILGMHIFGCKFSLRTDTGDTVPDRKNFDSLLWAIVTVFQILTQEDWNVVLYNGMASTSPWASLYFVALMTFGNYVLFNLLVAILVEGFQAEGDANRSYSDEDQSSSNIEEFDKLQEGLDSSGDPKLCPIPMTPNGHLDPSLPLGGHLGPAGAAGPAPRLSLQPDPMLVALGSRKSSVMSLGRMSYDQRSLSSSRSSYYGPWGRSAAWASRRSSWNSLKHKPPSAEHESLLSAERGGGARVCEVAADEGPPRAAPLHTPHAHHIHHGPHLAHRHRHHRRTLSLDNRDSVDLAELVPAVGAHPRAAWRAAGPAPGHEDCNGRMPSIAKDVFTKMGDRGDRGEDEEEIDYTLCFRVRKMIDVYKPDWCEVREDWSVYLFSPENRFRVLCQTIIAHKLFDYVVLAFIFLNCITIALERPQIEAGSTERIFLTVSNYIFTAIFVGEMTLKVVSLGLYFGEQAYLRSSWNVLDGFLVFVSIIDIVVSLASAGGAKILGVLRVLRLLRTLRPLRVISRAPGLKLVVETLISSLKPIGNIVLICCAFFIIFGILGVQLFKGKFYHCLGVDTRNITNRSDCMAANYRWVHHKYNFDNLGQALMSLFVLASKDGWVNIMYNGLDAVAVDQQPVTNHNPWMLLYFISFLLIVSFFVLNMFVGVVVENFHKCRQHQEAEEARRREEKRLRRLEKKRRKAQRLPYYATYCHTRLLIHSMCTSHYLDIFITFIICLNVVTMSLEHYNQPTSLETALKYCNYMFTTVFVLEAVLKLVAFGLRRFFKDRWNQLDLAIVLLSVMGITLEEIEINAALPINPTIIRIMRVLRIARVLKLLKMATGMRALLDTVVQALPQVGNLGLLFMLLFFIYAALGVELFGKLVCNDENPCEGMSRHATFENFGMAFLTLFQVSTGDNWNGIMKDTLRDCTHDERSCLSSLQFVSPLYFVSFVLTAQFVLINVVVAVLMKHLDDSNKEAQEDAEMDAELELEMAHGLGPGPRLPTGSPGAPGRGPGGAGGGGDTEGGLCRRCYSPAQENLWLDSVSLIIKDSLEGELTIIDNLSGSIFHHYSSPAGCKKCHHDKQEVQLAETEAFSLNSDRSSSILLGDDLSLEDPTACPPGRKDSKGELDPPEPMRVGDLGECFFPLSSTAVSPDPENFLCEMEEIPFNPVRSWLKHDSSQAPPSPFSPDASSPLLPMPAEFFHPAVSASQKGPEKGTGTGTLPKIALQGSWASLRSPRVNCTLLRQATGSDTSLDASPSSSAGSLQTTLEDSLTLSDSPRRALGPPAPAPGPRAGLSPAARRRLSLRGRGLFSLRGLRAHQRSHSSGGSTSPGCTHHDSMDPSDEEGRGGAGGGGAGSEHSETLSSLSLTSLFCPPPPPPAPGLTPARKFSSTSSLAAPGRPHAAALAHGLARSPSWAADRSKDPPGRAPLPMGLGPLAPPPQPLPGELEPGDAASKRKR
# T2 sequence (O95180 whole entry): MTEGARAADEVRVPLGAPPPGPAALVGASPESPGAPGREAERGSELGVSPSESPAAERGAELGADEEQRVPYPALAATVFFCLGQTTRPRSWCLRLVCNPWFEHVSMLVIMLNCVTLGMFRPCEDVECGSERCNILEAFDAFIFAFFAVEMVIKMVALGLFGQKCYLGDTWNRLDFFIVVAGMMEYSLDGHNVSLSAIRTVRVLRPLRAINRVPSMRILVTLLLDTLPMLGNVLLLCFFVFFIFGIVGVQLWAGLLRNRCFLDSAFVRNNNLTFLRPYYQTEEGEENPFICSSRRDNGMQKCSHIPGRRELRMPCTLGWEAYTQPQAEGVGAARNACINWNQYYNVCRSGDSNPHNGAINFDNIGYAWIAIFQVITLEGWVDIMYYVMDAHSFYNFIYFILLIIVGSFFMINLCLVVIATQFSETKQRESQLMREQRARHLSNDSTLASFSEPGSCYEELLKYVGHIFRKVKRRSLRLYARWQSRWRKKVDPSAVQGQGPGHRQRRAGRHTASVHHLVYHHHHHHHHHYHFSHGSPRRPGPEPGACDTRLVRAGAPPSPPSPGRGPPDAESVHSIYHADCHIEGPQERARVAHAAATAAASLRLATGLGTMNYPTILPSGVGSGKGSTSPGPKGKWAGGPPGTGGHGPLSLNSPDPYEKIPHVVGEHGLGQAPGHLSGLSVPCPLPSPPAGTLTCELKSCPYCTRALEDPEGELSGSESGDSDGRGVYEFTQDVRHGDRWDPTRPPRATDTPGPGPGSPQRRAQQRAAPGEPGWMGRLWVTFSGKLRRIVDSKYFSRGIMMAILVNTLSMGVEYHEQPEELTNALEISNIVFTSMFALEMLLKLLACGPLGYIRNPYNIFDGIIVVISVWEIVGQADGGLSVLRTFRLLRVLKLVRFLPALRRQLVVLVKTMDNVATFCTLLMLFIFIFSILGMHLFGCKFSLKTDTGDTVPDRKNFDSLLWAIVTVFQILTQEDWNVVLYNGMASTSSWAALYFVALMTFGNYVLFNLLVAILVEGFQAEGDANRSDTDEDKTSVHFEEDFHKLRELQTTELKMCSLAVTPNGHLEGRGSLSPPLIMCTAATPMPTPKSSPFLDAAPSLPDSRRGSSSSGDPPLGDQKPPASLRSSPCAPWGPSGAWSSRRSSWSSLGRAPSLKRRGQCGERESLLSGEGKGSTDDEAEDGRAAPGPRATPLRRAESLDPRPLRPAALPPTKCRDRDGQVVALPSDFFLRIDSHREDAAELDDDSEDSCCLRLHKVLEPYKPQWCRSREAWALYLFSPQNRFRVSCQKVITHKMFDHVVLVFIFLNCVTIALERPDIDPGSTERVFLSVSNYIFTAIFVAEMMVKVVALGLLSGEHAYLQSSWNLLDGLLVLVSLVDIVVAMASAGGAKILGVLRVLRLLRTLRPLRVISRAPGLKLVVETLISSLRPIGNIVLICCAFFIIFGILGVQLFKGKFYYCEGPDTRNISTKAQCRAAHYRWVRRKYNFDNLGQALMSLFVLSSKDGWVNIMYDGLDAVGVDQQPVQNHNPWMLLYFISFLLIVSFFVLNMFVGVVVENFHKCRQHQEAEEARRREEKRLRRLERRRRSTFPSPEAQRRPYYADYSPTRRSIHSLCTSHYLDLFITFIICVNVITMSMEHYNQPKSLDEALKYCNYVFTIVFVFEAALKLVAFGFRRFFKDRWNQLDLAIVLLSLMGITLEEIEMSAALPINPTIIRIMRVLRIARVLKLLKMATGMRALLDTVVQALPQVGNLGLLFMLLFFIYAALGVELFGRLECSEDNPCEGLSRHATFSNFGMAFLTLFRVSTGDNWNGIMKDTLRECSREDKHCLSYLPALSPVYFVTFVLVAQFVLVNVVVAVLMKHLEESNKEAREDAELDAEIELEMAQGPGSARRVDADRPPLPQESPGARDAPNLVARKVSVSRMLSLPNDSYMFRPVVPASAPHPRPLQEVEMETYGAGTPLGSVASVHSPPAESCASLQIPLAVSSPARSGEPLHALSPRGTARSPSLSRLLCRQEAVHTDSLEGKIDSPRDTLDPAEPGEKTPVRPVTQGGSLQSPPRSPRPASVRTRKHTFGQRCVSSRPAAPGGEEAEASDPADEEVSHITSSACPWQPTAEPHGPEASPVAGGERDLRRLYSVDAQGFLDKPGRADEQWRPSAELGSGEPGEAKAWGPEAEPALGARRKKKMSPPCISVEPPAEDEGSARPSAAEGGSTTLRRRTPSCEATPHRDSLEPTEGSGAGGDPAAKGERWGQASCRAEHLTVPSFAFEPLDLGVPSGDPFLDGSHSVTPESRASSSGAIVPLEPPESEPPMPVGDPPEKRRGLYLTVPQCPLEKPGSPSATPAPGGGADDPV
structure (smiles),measurement,setting,value
CC(C)c1ccc(CC(=O)N[C@H](C)c2ccc(OCC(F)(F)F)cn2)cc1 [CX-8998],"TETRAS-PS Total Score change from baseline to Day 28, LS mean difference from placebo (95% CI)","[1]; Investigator Rated, subgroup Using Concurrent Tremor Medication at Day 1","−0.5 (−3.2, 2.3)"
same,"TETRAS-PS Total Score change from baseline to Day 28, LS mean (SE)",[1]; [7],−3.5 (1.29)
same,"TETRAS-PS Total Score change from baseline to Day 28, Mean (SD)",[1]; [7],−3.9 (4.31)
same,"TETRAS-PS Total Score change from baseline to Day 28, Median (minimum, maximum)",[1]; [7],"−3.5 (−13.5, 4.5)"
same,>5 to 10 point worsening,[1]; Day 15,0 n (%)
same,>10 point worsening,[1]; Day 15,0 n (%)
same,>5 to 10 point worsening,[1]; Day 28,0 n (%)
same,>10 point worsening,[1]; Day 28,0 n (%)
same,"TETRAS-PS change from baseline to Day 28, Mean (SD)",[1]; independent video raters,−1.6 (4.36)
same,"TETRAS-PS change from baseline to Day 28, Median",[1]; independent video raters,−1.5
same,"TETRAS-PS change from baseline to Day 28, Mean (SD)",[1]; investigator rated,−4.4 (4.16)
same,"TETRAS-PS change from baseline to Day 28, Median",[1]; investigator rated,−4.0
same,dose at which developmental toxicity was observed,[2]; [8],observed at ≥100 mg/kg/day.
same,dose at which maternal toxicity was excessive,[2]; [8],1000 mg/kg/day
same,dose at which maternal toxicity was observed,[2]; [8],≥ 30 mg/kg/day
same,Doses with developmental toxicity (decreased live fetal body weight),"[2]; rat, in vivo",≥ 100 mg/kg/day
same,Doses with maternal toxicity,"[2]; rat, in vivo",≥ 30 mg/kg/day
same,FOB findings,[3]; [9],non-adverse FOB changes were also
same,female reproductive organ findings (extended diestrus),[3]; [9],Reversible changes
same,NOEL,[3]; both sexes,< 30 mg/kg/day
same,NOAEL at 4 weeks,"[3]; both, Sprague-Dawley, po",30 mg/kg
same,LOEL for the FOB,"[3]; female rats, Day 1",30 mg/kg/day
same,NOAEL at 4 weeks,"[3]; female, oral",< 30 mg/kg/day
same,AUC,"[3]; female, po, 300 mg/kg/day, AUC24, Female rats, 300 mg/kg/day oral gavage",438 µM·h
same,Cmax,"[3]; female, po, 300 mg/kg/day, Female rats, 300 mg/kg/day oral gavage",28.3 µM
same,Cmax,"[3]; female, po, 2000 mg/kg/day, Female rats, 2000 mg/kg/day oral gavage",33.5 µM
same,NOAEL at 4 weeks,"[3]; male, oral",30 mg/kg/day
same,AUC,"[3]; male, po, 30 mg/kg/day, AUC24, Male rats, 30 mg/kg/day oral gavage",35.1 µM·h
same,Cmax,"[3]; male, po, 300 mg/kg/day, Male rats, 300 mg/kg/day oral gavage",26.1 µM
same,AUC,"[3]; male, po, 2000 mg/kg/day, AUC24, Male rats, 2000 mg/kg/day oral gavage",467 µM·h
same,Cmax,"[3]; male, po, 2000 mg/kg/day, Male rats, 2000 mg/kg/day oral gavage",28.9 µM
same,IC50,Cav3.3; Vh −80 mV,~84 nM and 84 nM
same,IC50,Cav3.3; Vh=−100 mV,~2400 nM and 2400 nM
same,IC50,Cav3.2,96 nM
same,Peak change in QT interval,cardiovascular function; 20 mg/kg oral,-27 ms
same,Peak change in heart rate,cardiovascular function; 20 mg/kg oral,+28 beats/min
same,Peak decrease in QT interval,cardiovascular function; 300 mg/kg oral,-14 ms
same,Peak increase in heart rate,cardiovascular function; 300 mg/kg oral,+47 beats/min
same,NOEL,"cardiovascular function; dog, in vivo",2 mg/kg
same,NOAEL,[4]; in vivo,20 mg/kg
same,Cmax,"[4]; plasma, po, 20 mg/kg",~30 µM
same,"Change from baseline in TETRAS-Total, LS mean",[5]; Day 15 (8 mg BID),−7.5±1.42 and −7.5
same,"Change from baseline in TETRAS-Total, LS mean",[5]; Day 28 (10 mg BID),−9.0±1.66 and −9
same,>5 to 10 point worsening,"[5]; TETRAS Total, Day 15",0 n (%)
same,>10 point worsening,"[5]; TETRAS Total, Day 15",0 n (%)
same,0 change,"[5]; TETRAS Total, Day 28",0 n (%)
same,>5 to 10 point worsening,"[5]; TETRAS Total, Day 28",0 n (%)
same,>10 point worsening,"[5]; TETRAS Total, Day 28",0 n (%)
same,Micronuclei induction in bone marrow result,[6],negative
same,Inhibition of metabolism by antihuman CYP3A and CYP2C antibodies,CYP3A4 and CYP2C9,> 90%

# Source: US11311522B1 (Cavion, Inc., priority 2018, dated 2022)
